Reference: paper PMC8364686, “Safety, tolerability, pharmacokinetics and pharmacodynamics of single oral doses of BI 187004, an inhibitor of 11beta-hydroxysteroid dehydrogenase-1, in healthy male volunteers with overweight or obesity” (Clinical Diabetes and Endocrinology, 2021)

Assay: Plasma pharmacokinetics of BI 187004 after single oral doses (LC–MS/MS)
Details: male, human, plasma, po
Method: This was a randomized, double-blind, placebo-controlled, single rising dose study conducted at a single center in Germany. […] Follow-up on an ambulatory basis was performed between 11 and 15 days after study drug administration. […] At the time of use the oral solution for dosing was prepared using the PFOS and a co-supplied aqueous solvent containing HP-beta-cyclodextrin 100 mg/mL. The lowest dose level solutions were prepared by further dilution of the lower concentration solution with additional solvent.
For each accepted run, the acceptance criteria for the calibration standards and quality controls were met.

## N#Cc1ccc2c(c1)[C@H]1CCCN(C(=O)c3ccc4[nH]cnc4c3)[C@H]1C2 [BI 187004]
2.5 mg, Plasma concentration gMean, 2.5 mg single oral, 2.5 h
  concentration at 2.5 h: 7.33 nM
2.5 mg, Plasma concentration gMean, 2.5 mg single oral, 3 h
  concentration at 3 h: 6.19 nM
2.5 mg, Plasma concentration gMean, 2.5 mg single oral, 4 h
  concentration at 4 h: 5.87 nM
2.5 mg, Plasma concentration gMean, 2.5 mg single oral, 5 h
  concentration at 5 h: 6.61 nM
2.5 mg, Plasma concentration gMean, 2.5 mg single oral, 6 h
  concentration at 6 h: 5.38 nM
2.5 mg, Plasma concentration gMean, 2.5 mg single oral, 10 h
  concentration at 10 h: 4.38 nM
2.5 mg, Plasma concentration gMean, 2.5 mg single oral, 12 h
  concentration at 12 h: 4.53 nM
2.5 mg, Plasma concentration gMean, 2.5 mg single oral, 24 h
  concentration at 24 h: 4.54 nM
2.5 mg, Plasma concentration gMean, 2.5 mg single oral, 48 h
  concentration at 48 h: 3.93 nM
2.5 mg, Plasma concentration, individual subjects, 2.5 mg single oral, planned time 8 h
  concentration at 8 h: 6.73 nM
2.5 mg, Plasma concentration, individual subjects, 2.5 mg single oral, planned time 10 h
  concentration at 10 h: 5.99 nM
2.5 mg, Plasma concentration, individual subjects, 2.5 mg single oral, planned time 12 h
  concentration at 12 h: 6.44 nM
2.5 mg, Plasma concentration, individual subjects, 2.5 mg single oral, planned time 24 h
  concentration at 24 h: 4.19 nM
2.5 mg, Plasma concentration, individual subjects, 2.5 mg single oral, planned time 36 h
  concentration at 36 h: 5.06 nM
2.5 mg, Plasma concentration, individual subjects, 2.5 mg single oral, planned time 48 h
  concentration at 48 h: 3.58 nM
2.5 mg, Plasma concentration, individual subjects, 2.5 mg single oral, planned time 72 h
  concentration at 72 h: 3.34 nM
2.5 mg, Plasma concentration, individual subjects, 2.5 mg single oral, planned time 96 h
  concentration at 96 h: 3.04 nM
5 mg
  AUC(0-inf): 2.5 µM·h
  AUC(0-t): 1.49 µM·h
  Cmax: 150 nM
  Tmax: 1 h
  Vd/F: 281 L
  half-life: 33.5 h
5 mg, C24 gMean (%gCV), 5 mg single oral dose
  concentration at 24 h: 30 nM
5 mg, Plasma concentration Mean, 5 mg single oral
  concentration at 0.5 h: 101 nM
5 mg, Plasma concentration Mean, 5 mg single oral, 1 h
  concentration at 1 h: 147 nM
5 mg, Plasma concentration Mean, 5 mg single oral, 1.5 h
  concentration at 1.5 h: 135 nM
5 mg, Plasma concentration Mean, 5 mg single oral, 2 h
  concentration at 2 h: 122 nM
5 mg, Plasma concentration Mean, 5 mg single oral, 2.5 h
  concentration at 2.5 h: 123 nM
5 mg, Plasma concentration Mean, 5 mg single oral, 3 h
  concentration at 3 h: 114 nM
5 mg, Plasma concentration Mean, 5 mg single oral, 4 h
  concentration at 4 h: 105 nM
5 mg, Plasma concentration Mean, 5 mg single oral, 5 h
  concentration at 5 h: 97.4 nM
5 mg, Plasma concentration Mean, 5 mg single oral, 6 h
  concentration at 6 h: 81.2 nM
5 mg, Plasma concentration Mean, 5 mg single oral, 8 h
  concentration at 8 h: 72.9 nM
5 mg, Plasma concentration Mean, 5 mg single oral, 10 h
  concentration at 10 h: 58 nM
5 mg, Plasma concentration Mean, 5 mg single oral, 12 h
  concentration at 12 h: 49.7 nM
5 mg, Plasma concentration Mean, 5 mg single oral, 24 h
  concentration at 24 h: 31 nM
5 mg, Plasma concentration Mean, 5 mg single oral, 36 h
  concentration at 36 h: 14.9 nM
5 mg, Plasma concentration Mean, 5 mg single oral, 48 h
  concentration at 48 h: 13.1 nM
5 mg, Plasma concentration Mean, 5 mg single oral, 72 h
  concentration at 72 h: 7.42 nM
5 mg, Plasma concentration Mean, 5 mg single oral, 96 h
  concentration at 96 h: 4.78 nM
5 mg, Plasma concentration Median, 5 mg single oral
  concentration at 0.5 h: 128 nM
5 mg, Plasma concentration Median, 5 mg single oral, 1 h
  concentration at 1 h: 141 nM
5 mg, Plasma concentration Median, 5 mg single oral, 1.5 h
  concentration at 1.5 h: 140 nM
5 mg, Plasma concentration Median, 5 mg single oral, 2 h
  concentration at 2 h: 126 nM
5 mg, Plasma concentration Median, 5 mg single oral, 2.5 h
  concentration at 2.5 h: 121 nM
5 mg, Plasma concentration Median, 5 mg single oral, 3 h
  concentration at 3 h: 113 nM
5 mg, Plasma concentration Median, 5 mg single oral, 4 h
  concentration at 4 h: 98.4 nM
5 mg, Plasma concentration Median, 5 mg single oral, 5 h
  concentration at 5 h: 98.1 nM
5 mg, Plasma concentration Median, 5 mg single oral, 6 h
  concentration at 6 h: 78.8 nM
5 mg, Plasma concentration Median, 5 mg single oral, 8 h
  concentration at 8 h: 71 nM
5 mg, Plasma concentration Median, 5 mg single oral, 10 h
  concentration at 10 h: 57.1 nM
5 mg, Plasma concentration Median, 5 mg single oral, 12 h
  concentration at 12 h: 50.3 nM
5 mg, Plasma concentration Median, 5 mg single oral, 24 h
  concentration at 24 h: 32.2 nM
5 mg, Plasma concentration Median, 5 mg single oral, 36 h
  concentration at 36 h: 15.5 nM
5 mg, Plasma concentration Median, 5 mg single oral, 48 h
  concentration at 48 h: 11.2 nM
5 mg, Plasma concentration Median, 5 mg single oral, 72 h
  concentration at 72 h: 6.1 nM
5 mg, Plasma concentration Median, 5 mg single oral, 96 h
  concentration at 96 h: 4.24 nM
5 mg, Plasma concentration gMean, 5 mg single oral
  concentration at 0.5 h: 63.7 nM
5 mg, Plasma concentration gMean, 5 mg single oral, 1 h
  concentration at 1 h: 144 nM
5 mg, Plasma concentration gMean, 5 mg single oral, 1.5 h
  concentration at 1.5 h: 134 nM
5 mg, Plasma concentration gMean, 5 mg single oral, 2 h
  concentration at 2 h: 121 nM
5 mg, Plasma concentration gMean, 5 mg single oral, 2.5 h
  concentration at 2.5 h: 122 nM
5 mg, Plasma concentration gMean, 5 mg single oral, 3 h
  concentration at 3 h: 113 nM
5 mg, Plasma concentration gMean, 5 mg single oral, 4 h
  concentration at 4 h: 104 nM
5 mg, Plasma concentration gMean, 5 mg single oral, 5 h
  concentration at 5 h: 96 nM
5 mg, Plasma concentration gMean, 5 mg single oral, 6 h
  concentration at 6 h: 79.9 nM
5 mg, Plasma concentration gMean, 5 mg single oral, 8 h
  concentration at 8 h: 71.8 nM
5 mg, Plasma concentration gMean, 5 mg single oral, 10 h
  concentration at 10 h: 56.8 nM
5 mg, Plasma concentration gMean, 5 mg single oral, 12 h
  concentration at 12 h: 48.5 nM
5 mg, Plasma concentration gMean, 5 mg single oral, 24 h
  concentration at 24 h: 30 nM
5 mg, Plasma concentration gMean, 5 mg single oral, 36 h
  concentration at 36 h: 14.2 nM
5 mg, Plasma concentration gMean, 5 mg single oral, 48 h
  concentration at 48 h: 12.5 nM
5 mg, Plasma concentration gMean, 5 mg single oral, 72 h
  concentration at 72 h: 7.05 nM
5 mg, Plasma concentration gMean, 5 mg single oral, 96 h
  concentration at 96 h: 4.6 nM
5 mg, Plasma concentration, individual subjects, 5 mg single oral, planned time 1 h
  concentration at 1 h: 112 nM
5 mg, Plasma concentration, individual subjects, 5 mg single oral, planned time 1.5 h
  concentration at 1.5 h: 144 nM
5 mg, Plasma concentration, individual subjects, 5 mg single oral, planned time 2 h
  concentration at 2 h: 127 nM
5 mg, Plasma concentration, individual subjects, 5 mg single oral, planned time 2.5 h
  concentration at 2.5 h: 122 nM
5 mg, Plasma concentration, individual subjects, 5 mg single oral, planned time 3 h
  concentration at 3 h: 118 nM
5 mg, Plasma concentration, individual subjects, 5 mg single oral, planned time 4 h
  concentration at 4 h: 99.5 nM
5 mg, Plasma concentration, individual subjects, 5 mg single oral, planned time 5 h
  concentration at 5 h: 96.9 nM
5 mg, Plasma concentration, individual subjects, 5 mg single oral, planned time 6 h
  concentration at 6 h: 80.6 nM
5 mg, Plasma concentration, individual subjects, 5 mg single oral, planned time 8 h
  concentration at 8 h: 72.1 nM
5 mg, Plasma concentration, individual subjects, 5 mg single oral, planned time 24 h
  concentration at 24 h: 35.1 nM
5 mg, Plasma concentration, individual subjects, 5 mg single oral, planned time –0.5 h
  concentration at -0.5 h: 90.2 nM
10 mg
  AUC(0-inf): 5.91 µM·h
  AUC(0-t): 4.38 µM·h
  Cmax: 502 nM
  Tmax: 1 h
  Vd/F: 169 L
  half-life: 23.7 h
10 mg, C24 gMean (%gCV), 10 mg single oral dose
  concentration at 24 h: 71.3 nM
10 mg, Plasma concentration Mean, 10 mg single oral
  concentration at 0.5 h: 365 nM
10 mg, Plasma concentration Mean, 10 mg single oral, 1 h
  concentration at 1 h: 429 nM
10 mg, Plasma concentration Mean, 10 mg single oral, 1.5 h
  concentration at 1.5 h: 438 nM
10 mg, Plasma concentration Mean, 10 mg single oral, 2 h
  concentration at 2 h: 382 nM
10 mg, Plasma concentration Mean, 10 mg single oral, 2.5 h
  concentration at 2.5 h: 376 nM
10 mg, Plasma concentration Mean, 10 mg single oral, 3 h
  concentration at 3 h: 339 nM
10 mg, Plasma concentration Mean, 10 mg single oral, 4 h
  concentration at 4 h: 346 nM
10 mg, Plasma concentration Mean, 10 mg single oral, 5 h
  concentration at 5 h: 277 nM
10 mg, Plasma concentration Mean, 10 mg single oral, 6 h
  concentration at 6 h: 260 nM
10 mg, Plasma concentration Mean, 10 mg single oral, 8 h
  concentration at 8 h: 213 nM
10 mg, Plasma concentration Mean, 10 mg single oral, 10 h
  concentration at 10 h: 182 nM
10 mg, Plasma concentration Mean, 10 mg single oral, 12 h
  concentration at 12 h: 146 nM
